Measured values from patent US8173604B2, “Inhibition of Skp2-cyclin a interaction” (Albert Einstein College of Medicine of Yeshiva University, priority 2006, dated 2012).
Entries after “also recorded” stand apart in the source; their conditions may differ. Numbered stars: 1 amine (or outer) side, 2 acyl side, 3 side chain; on linkers, the order of the positions; unused ones are H or OH. Bridge positions count the residues as written; N and C are the ends. Square brackets hold non-standard residues; d marks the D form. Peptide text beside a SMILES is read from it. I, II: the chains in the order shown. Actinocin(9to1) = Cc1c2oc3c(C)ccc(C(=O)[*:1])c3nc-2c(C(=O)[*:2])c(N)c1=O; NMeV = CN[C@H](C(=O)O)C(C)C; Sar = CNCC(=O)O

Tests used:
cyclin A/Cdk2 [1] = biological target: T1, cyclin A/Cdk2 (Homo sapiens, UniProt P20248+P24941); assay: In vitro cyclin A/Cdk2 kinase assay with purified proteins (GST-Rb-C substrate); type: biochemical; conditions: for Preventing Skp2N from protecting cyclin A/Cdk2 from inhibition by p27: cyclin A/Cdk2 3 nM, p27 5 nM, Skp2N 80 nM, increasing amounts of peptide
T1 construct: made in house; host or cells: insect cells (baculovirus)
Procedure: (§1) Cyclin A/Cdk2 kinase assays were performed as described previously (Ji et al., 2004). Both immuno-purified myc-cyclin A/Cdk2 on beads and GST-purified and eluted GST-cyclin A/Cdk2 (baculovirus vectors for GST-cyclin A and Cdk2 were provided by Brian Dynlacht) were used. The amounts of purified proteins were determined by comparing them with known amounts of standard proteins in Coomassie blue stained gels. Phosphorylation of GST-Rb-C was quantified with the ImageQuant software. The Ki of various proteins was determined by non-linear least squares analysis. To determine the amounts of various proteins in synchronized HeLa cells, extracts representing 7.5×10^4 HeLa cells were resolved with known amounts of purified proteins and compared in the same Western blots. Actual amounts of proteins in 7.5×10^4 HeLa cells were then determined (for example, the amounts of p27, Skp2, and cyclin A in 7.5×10^4 HeLa cells were determined to be about 0.1, 0.2, and 0.1 pmoles, respectively, at 14 hours post-replating; and about 0.01, 0.1, and 1.0 pmoles, respectively, at 19 hours post-replating).
For kinase reactions, insect cell-produced and purified GST-cyclin A/Cdk2 was used at a concentration of ˜3 nM, which was the lowest concentration that yielded readily detectible phosphorylation of GST-Rb-C here. Purified p27, GST-Skp2, and Skp2N were titrated into the kinase reaction over a wide range of concentrations (FIGS. 7A, B, and C). Phosphorylation of Rb-C was measured and plotted, and the Ki of these various proteins were determined by non-linear least squares analysis (FIG. 7F).
Since Skp2 competes with p27 for binding to cyclin A and Skp2's Ki is about 100-fold higher than p27's Ki, it can be reasoned that, at concentrations well below its Ki, Skp2 might be able to protect cyclin A/Cdk2 from inhibition by p27. To test this hypothesis, the same cyclin A/Cdk2 kinase assay was carried out to determine the inhibitory activity of p27 in the presence of 80 nM of Skp2N.
It was then determined whether the 4060 peptide could prevent Skp2N from protecting cyclin A/Cdk2 from inhibition by p27. […] When 80 nM of Skp2N was included, 5 nM of p27 lost its ability to inhibit the kinase activity (lane 3). […] These findings indicate that the Skp2-cyclin A interaction is also a potential target to inhibit cyclin A kinase activity in tumor cells, particularly those overexpressing Skp2.
To test this prediction, various peptides were added to an in vitro kinase reaction with purified cyclin A/Cdk2 (˜3 nM concentration). An E2F1-derived RxL peptide, LDL peptide, was used for comparison since it could inhibit cyclin A/Cdk2 kinase activity (Sun et al., 2006, and see next section). Since a TAT sequence was later added to these peptides for trans-membrane delivery (see next section), two versions of each peptide (without TAT and with TAT) was used in these kinase assays. These two versions of peptides yielded identical results and therefore only presented results with one version of the peptides.
The effects of the 4060 peptide on cyclin A/Cdk2 kinase activity in the presence of Skp2 and p27 were then determined.

U2OS cells [2] = conditions: for Cell killing effect: twenty four hours after addition of peptides
Procedure: It is currently unknown how peptide concentrations in the culture media translate into intro-cellular peptide concentrations.
Whether artificial manipulation of Skp2 protein levels in U2OS cells could change the IC50 of various peptides was also investigated.
(§2) Cell proliferation and survival assays. For the cell proliferation assay shown in FIG. 10D, 1×10^4 cells were plated in each well of 24 well plates and allowed to grow for a course of four days in the presence of 10% FBS. Cell numbers were counted every day from triplet wells. For cell survival assays in FIGS. 13, 14 and 15, 1×10^3 cells were plated in each well of 96 well plates and allowed to adhere overnight in the presence of 10% FBS. The cells were washed once with Opti-MEM (GIBCO) followed by incubation with different concentrations of peptides in Opti-MEM for 24 hours in triplicate. MTS assay was then performed following manufacturer's protocol (Promega).

[3] = test system: human diploid fibroblasts WI-38; assay: Cell survival MTS assay, WI-38; type: cell-based; conditions: 120 μM, 24 hours
Procedure: In comparison, both TAT-Umt and TAT-4060 inhibited cyclin A/Cdk2 kinase activity in vitro at peptide concentrations of 100 μM (FIG. 11B). It is currently unknown how peptide concentrations in the culture media translate into intro-cellular peptide concentrations.
as §2

U2OS cells [4] = assay: Flow cytometry cell cycle profile after actinomycin D; type: cell-based, human; conditions: actinomycin D 180 nM, 20 hours
Procedure: Drug treatment and various routine assays. Actinomycin D (Sigma) treatment was for 20-22 hours at 180 nM. To arrest HeLa cells in mitotic phase, cells were treated with 100 ng/ml nocodazole (Sigma) for 16-17 hours. Western blotting, immunoprecipitation, indirect immunofluorescence, and flow cytometry analysis to determine cell cycle profiles were all performed with standard protocols and as described previously (Ji et al., 2004).
The AAAA mutation compromises Skp2's proliferation stimulatory activity without affecting its ability to cause degradation of cellular p27 and p21. […] Similar to the experiment shown in FIG. 6B, U2OS cells were treated with actinomycin D, which led to activation of p53, stimulation of p21 expression, and G1 cell cycle arrest manifested by a 20% increase in G1 phase cells (FIGS. 9A and B). Skp2 was overexpressed in U2OS cells to determine whether Skp2 could counter the G1 cell cycle arrest mediated by this actinomycin D triggered checkpoint.

[5] = biological target: T2, Skp2-cyclin A interaction (Homo sapiens, UniProt P20248); assay: GST pull-down, blocking of Skp2-cyclin A interaction by peptides; type: binding; conditions: for Blocking of Skp2N-cyclin A interaction: GST-Skp2N, myc-cyclin A/Cdk2 transfected 293T cell extracts
T2 construct: expressed in transfected cells; host or cells: 293T (cyclin A/Cdk2)
Procedure: GST pull down, p27 ubiquitylation assay, and cyclin A kinase assay. GST fusion proteins were purified on GSH-beads (Amersham), which were then incubated with transfected cell extracts for 1 hour in 4° C. with rocking. The beads were washed three times with lysis buffer (25 mM Hepes pH 7.6, 100 mM KCl, 0.1 mM EDTA, 10 mM MgCl2, 0.1% NP-40, 10% glycerol, 1 mM DTT) before analysis by SDS-PAGE and Western blotting.
Skp2-cyclin A interaction and p27-cyclin A interaction can be blocked by distinct peptides. An important aspect of the RxL-1-IP interaction is that it can be blocked by a short RxL peptide (Adams et al., 1996). If the Skp2-cyclin A/Cdk2 interaction and the p27-cyclin A/Cdk2 interaction are mediated by different sequences on both sides of the interaction, as shown above, it can be predicted that the RxL peptide should not block Skp2-cyclin A interaction. […] Peptide concentrations required for their respective blocking activities were similar for RxL and 4060 peptides.

cyclin A/Cdk2 [6] = biological target: T1, cyclin A/Cdk2; assay: IP-kinase assay with myc-cyclin A/Cdk2 transfected 293T cell extract; type: biochemical; conditions: increasing amounts of peptide
Procedure: In panel A, an IP-kinase assay was performed with myc-cyclin A/Cdk2 transfected 293T cell extract in the presence of increasing amounts of RxL or 4060 peptides. Phosphorylation of GST-Skp2N is visible in this gel. […] As indicated, increasing amounts of the 4060 or 4060AAAA peptides were included in the reactions. Phosphorylation of Rb-C was quantified and plotted as shown.
as §1, with “To determine the amounts of various proteins in synchronized HeLa cells, extracts representing 7.5×10^4 HeLa cells were resolved with known amounts of purified proteins and compared in the same Western blots.” left out, “post-replating). […]” for “post-replating).”

[7] = biological target: T3, interaction between cellular Skp2 and cyclin A/Cdk2 (Homo sapiens, UniProt P20248); assay: Coimmunoprecipitation with cyclin A from peptide-treated U2OS cells; type: cell-based; conditions: 50 μM peptide, twelve hours
T3 construct: endogenous in cells; host or cells: U2OS
Procedure: FIG. 12 is photographs of western blots and kinase assays and graphs showing the effects of trans-membrane delivery of the 4060 peptide. In Panel A, U2OS cells were treated with 50 μM of indicated peptide for twelve hours. Cell extracts were prepared for immunoprecipitation and Western blot analysis as indicated. […] In Panel C, the same extracts were used in IP-kinase assays as indicated. The extent of phosphorylation was quantified and plotted.
The loss of Skp2-cyclin A/Cdk2 interaction was not due to a reduction in levels of these proteins (FIG. 12B). Importantly, cellular p27 protein levels were not affected by the blocking peptide. […] Here, it is important to point out that although we used p27 as an inhibitor of cyclin A-associated kinase activity in purified kinase reactions with the 4060 blocking peptide shown in FIG. 11, the effects of blocking Skp2-cyclin A interaction on cyclin A-associated kinase activity in cells is unlikely to be mediated by p27 alone. There was no significant interaction between p27 and cyclin A in U2OS cells before and after treatment of TAT-4060. p27 family members p21 and p57, and the pocket proteins p107 and p130 (Adams et al., 1996) may bind and inhibit cyclin A-associated kinase activity through the RxL-HP interaction mechanism. […]

| Compound | Change of peptide effect by Skp2 knockdown or overexpression (U2OS cells [2]; U2OS) | WI-38 cells killed [3] | Blocking of Skp2N-cyclin A interaction [5] | Preventing Skp2N from protecting cyclin A/Cdk2 from inhibition by p27 (cyclin A/Cdk2 [1]) | Cell killing effect (U2OS cells [2]; U2OS) | also measured |
| --- | --- | --- | --- | --- | --- | --- |
| CC(C)C[C@H](NC(=O)[C@H](CC(=O)O)NC(=O)[C@H](CC(C)C)NC(=O)[C@H](CCCNC(=N)N)NC(=O)[C@H](CCCNC(=N)N)NC(=O)[C@H](CCCCN)NC(=O)[C@@H](NC(=O)[C@@H]1CCCN1C(=O)CNC(=O)[C@H](CCCNC(=N)N)NC(=O)[C@H](CCCNC(=N)N)NC(=O)[C@H](CCCNC(=N)N)NC(=O)[C@H](CCC(N)=O)NC(=O)[C@H](CCCNC(=N)N)NC(=O)[C@H](CCCNC(=N)N)NC(=O)[C@H](CCCCN)NC(=O)[C@H](CCCCN)NC(=O)[C@H](CCCNC(=N)N)NC(=O)CNC(=O)[C@@H](N)Cc1ccc(O)cc1)C(C)C)C(=O)O [TAT-LDL, reference compound] | not affected by Skp2 knockdown or overexpression | 25% | – | – | – | Inhibition of cyclin A/Cdk2 kinase activity towards GST-Rb-C (cyclin A/Cdk2 [1]; 1 μM peptide, cyclin A/Cdk2 ~3 nM): ten-fold; Cell killing effect of single peptide (U2OS cells [2]; U2OS, 1 or 2 μM, 24 hours): neither TAT-LDL nor TAT-4060 exhibited any cell killing effects |
| Cc1c2oc3c(C)ccc(C(=O)N[C@@H]4C(=O)N[C@H](C(C)C)C(=O)N5CCC[C@H]5C(=O)N(C)CC(=O)N(C)[C@@H](C(C)C)C(=O)O[C@@H]4C)c3nc-2c(C(=O)N[C@@H]2C(=O)N[C@H](C(C)C)C(=O)N3CCC[C@H]3C(=O)N(C)CC(=O)N(C)[C@@H](C(C)C)C(=O)O[C@@H]2C)c(N)c1=O [actinomycin D, Actinomycin D] (I: T[dV]P[Sar][NMeV] / II: T[dV]P[Sar][NMeV]; ester I:1-I:C, II:1-II:C; linker I:N-II:N via Actinocin(9to1)) | – | – | – | – | – | Increase in G1 phase cells (U2OS cells [4]): 20% |
| KTSEAASGMGVAAAEKEE (peptide 4060AAAA) [4060 peptide with the four conserved residues mutated to alanine, reference compound] | – | – | abolished the blocking activity | did not have significant effects; also recorded: much weaker in disrupting the protective effect of Skp2N | – | – |
| KTSELLSGMGVSALEKEE (listed as Homo sapiens) [compound 4060] | – | – | can block | p27 gradually regained its inhibitory effects; also recorded: abolished this protective effect in a dose-dependent manner | – | Blocking of binding between full-length GST-Skp2 and cyclin A/Cdk2 ([5]; full-length GST-Skp2): blocked binding; Effect of peptide itself on cyclin A/Cdk2 kinase activity towards Rb-C (cyclin A/Cdk2 [6]): did not |
| YGRKKRRQRRRGETDHQYLAESS (TAT-Umt) [negative control peptide, reference compound] | not affected by Skp2 knockdown or overexpression | no effect | – | – | did not have cell killing effects | Inhibitory effect on cyclin A/Cdk2 kinase activity (cyclin A/Cdk2 [1]; 1 μM and 10 μM peptide): did not show inhibitory effect; Inhibition of cyclin A/Cdk2 kinase activity (cyclin A/Cdk2 [1]; 100 μM peptide): significant inhibition; Cell killing effect at 120 μM (U2OS cells [2]; 120 μM): did not exhibit cell killing effects |
| YGRKKRRQRRRGKTSEAASGMGVAAAEKEE (TAT-4060AAAA) [reference compound] | – | – | – | – | did not have significant cell killing effects | Dissociation of interaction between cellular Skp2 and cyclin A/Cdk2 [7]: did not have this effect |
